# Laboratory results as given in patent publication US8912329B2 (priority 2009, dated 2014).
# Key:
# EthR-VP16 = EthR-VP16 (Mycobacterium bovis, UniProt Q7TVI1); assay: cell-based; design: species or system M. bovis; conditions: 48 h, read-out: % EthR activity (w/o = 100%); ± std. dev. of the mean (n = 3)
# [1] = tested on: Mycobacterium tuberculosis laboratory strain H37Rv; assay: Growth inhibition / drug susceptibility testing of M. tuberculosis with MGIT 960 system, compounds combined with ethionamide; type: cell-based; design: key to growth inhibition of M. tuberculosis H37Rv (R/I/S): R: Resistance, no effect of combinatorial drug application; I: intermediate; S: sensitive
# [2] = 250 mg oral; cited from earlier work
# Sequence of EthR-VP16 (Q7TVI1 whole entry, looked up): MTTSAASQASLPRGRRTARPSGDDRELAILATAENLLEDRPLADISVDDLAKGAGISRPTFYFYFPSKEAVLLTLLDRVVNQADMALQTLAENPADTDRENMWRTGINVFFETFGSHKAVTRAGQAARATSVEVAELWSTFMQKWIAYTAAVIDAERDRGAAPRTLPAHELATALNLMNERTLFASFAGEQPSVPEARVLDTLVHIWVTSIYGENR
structure (smiles),measurement,setting,value
"O=C(Cc1ccccc1)N1CCC(c2ccccc2)C1 (centres unmarked) [Example 17, 2-Phenyl-1-(3-phenylpyrrolidin-1-yl)ethan-1-one]",remaining activity at 0.5 µM,EthR-VP16,38.5 ± 8.47%
same,remaining activity at 1.5 µM,EthR-VP16,35.5 ± 7.81%
same,remaining activity at 3 µM,EthR-VP16,22.5 ± 4.94%
same,remaining activity at 6 µM,EthR-VP16,16.3 ± 3.58%
same,remaining activity at 15 µM,EthR-VP16,14.2 ± 3.13%
same,remaining activity at 30 µM,EthR-VP16,11.5 ± 8.52%
same,remaining activity at 60 µM,EthR-VP16,1.86 ± 0.4%
same,remaining activity at 300 µM,EthR-VP16,0.83 ± 0.18%
same,growth inhibition of M. tuberculosis H37Rv (R/I/S),[1]; Example compound 0.5 μM + ethionamide 0.16 μg/ml,R
same,growth inhibition of M. tuberculosis H37Rv (R/I/S),[1]; Example compound 0.5 μM + ethionamide 0.31 μg/ml,R
same,growth inhibition of M. tuberculosis H37Rv (R/I/S),[1]; Example compound 0.5 μM + ethionamide 0.625 μg/ml,R
same,growth inhibition of M. tuberculosis H37Rv (R/I/S),[1]; Example compound 0.5 μM + ethionamide 1.25 μg/ml,R
same,growth inhibition of M. tuberculosis H37Rv (R/I/S),[1]; Example compound 0.5 μM + ethionamide 2.5 μg/ml,I
same,growth inhibition of M. tuberculosis H37Rv (R/I/S),[1]; Example compound 0.5 μM + ethionamide 5 μg/ml,S
same,growth inhibition of M. tuberculosis H37Rv (R/I/S),"[1]; Example compound 0.5 μM, ethionamide 0 μg/ml",R
same,growth inhibition of M. tuberculosis H37Rv (R/I/S),[1]; Example compound 1.5 μM + ethionamide 0.16 μg/ml,R
same,growth inhibition of M. tuberculosis H37Rv (R/I/S),[1]; Example compound 1.5 μM + ethionamide 0.31 μg/ml,R
same,growth inhibition of M. tuberculosis H37Rv (R/I/S),[1]; Example compound 1.5 μM + ethionamide 0.625 μg/ml,R
same,growth inhibition of M. tuberculosis H37Rv (R/I/S),[1]; Example compound 1.5 μM + ethionamide 1.25 μg/ml,I
same,growth inhibition of M. tuberculosis H37Rv (R/I/S),[1]; Example compound 1.5 μM + ethionamide 2.5 μg/ml,S
same,growth inhibition of M. tuberculosis H37Rv (R/I/S),[1]; Example compound 1.5 μM + ethionamide 5 μg/ml,S
same,growth inhibition of M. tuberculosis H37Rv (R/I/S),"[1]; Example compound 1.5 μM, ethionamide 0 μg/ml",R
same,growth inhibition of M. tuberculosis H37Rv (R/I/S),[1]; Example compound 4.5 μM + ethionamide 0.16 μg/ml,R
same,growth inhibition of M. tuberculosis H37Rv (R/I/S),[1]; Example compound 4.5 μM + ethionamide 0.31 μg/ml,R
same,growth inhibition of M. tuberculosis H37Rv (R/I/S),[1]; Example compound 4.5 μM + ethionamide 0.625 μg/ml,R
same,growth inhibition of M. tuberculosis H37Rv (R/I/S),[1]; Example compound 4.5 μM + ethionamide 1.25 μg/ml,I
same,growth inhibition of M. tuberculosis H37Rv (R/I/S),[1]; Example compound 4.5 μM + ethionamide 2.5 μg/ml,S
same,growth inhibition of M. tuberculosis H37Rv (R/I/S),[1]; Example compound 4.5 μM + ethionamide 5 μg/ml,S
same,growth inhibition of M. tuberculosis H37Rv (R/I/S),"[1]; Example compound 4.5 μM, ethionamide 0 μg/ml",R
same,growth inhibition of M. tuberculosis H37Rv (R/I/S),[1]; Example compound 13.5 μM + ethionamide 0.16 μg/ml,R
same,growth inhibition of M. tuberculosis H37Rv (R/I/S),[1]; Example compound 13.5 μM + ethionamide 0.31 μg/ml,R
same,growth inhibition of M. tuberculosis H37Rv (R/I/S),[1]; Example compound 13.5 μM + ethionamide 0.625 μg/ml,I
same,growth inhibition of M. tuberculosis H37Rv (R/I/S),[1]; Example compound 13.5 μM + ethionamide 1.25 μg/ml,I
same,growth inhibition of M. tuberculosis H37Rv (R/I/S),[1]; Example compound 13.5 μM + ethionamide 2.5 μg/ml,S
same,growth inhibition of M. tuberculosis H37Rv (R/I/S),[1]; Example compound 13.5 μM + ethionamide 5 μg/ml,S
same,growth inhibition of M. tuberculosis H37Rv (R/I/S),"[1]; Example compound 13.5 μM, ethionamide 0 μg/ml",R
same,growth inhibition of M. tuberculosis H37Rv (R/I/S),[1]; Example compound 40.5 μM + ethionamide 0.16 μg/ml,R
same,growth inhibition of M. tuberculosis H37Rv (R/I/S),[1]; Example compound 40.5 μM + ethionamide 0.31 μg/ml,R
same,growth inhibition of M. tuberculosis H37Rv (R/I/S),[1]; Example compound 40.5 μM + ethionamide 0.625 μg/ml,S
same,growth inhibition of M. tuberculosis H37Rv (R/I/S),[1]; Example compound 40.5 μM + ethionamide 1.25 μg/ml,S
same,growth inhibition of M. tuberculosis H37Rv (R/I/S),[1]; Example compound 40.5 μM + ethionamide 2.5 μg/ml,S
same,growth inhibition of M. tuberculosis H37Rv (R/I/S),[1]; Example compound 40.5 μM + ethionamide 5 μg/ml,S
same,growth inhibition of M. tuberculosis H37Rv (R/I/S),"[1]; Example compound 40.5 μM, ethionamide 0 μg/ml",R
same,growth inhibitory effect of compound alone on M. tuberculosis H37Rv,"[1]; compound alone, without ethionamide",do not show any growth inhibitory effect
same,growth of M. tuberculosis H37Rv in the presence of sub-inhibitory ethionamide concentrations,"[1]; ethionamide 0.16 and 5 μg/ml, 0.5 to 40.5 μMol compound",dose-dependently inhibited
"CCc1cc(C(N)=S)ccn1 [Ethionamide, 2-ethylthioiso-nicotinamide, reference compound]",cmax,[2],2 µg/mL
same,t1/2,[2],2 h
same,growth inhibition of M. tuberculosis H37Rv (R/I/S),[1]; ethionamide 0.16 μg/ml alone (Example compound 0 μM),R
same,growth inhibition of M. tuberculosis H37Rv (R/I/S),[1]; ethionamide 0.31 μg/ml alone (Example compound 0 μM),R
same,growth inhibition of M. tuberculosis H37Rv (R/I/S),[1]; ethionamide 0.625 μg/ml alone (Example compound 0 μM),R
same,growth inhibition of M. tuberculosis H37Rv (R/I/S),[1]; ethionamide 1.25 μg/ml alone (Example compound 0 μM),R
same,growth inhibition of M. tuberculosis H37Rv (R/I/S),[1]; ethionamide 2.5 μg/ml alone (Example compound 0 μM),I
same,growth inhibition of M. tuberculosis H37Rv (R/I/S),[1]; ethionamide 5 μg/ml alone (Example compound 0 μM),S
